Reference: patent US9090576B2, “2-substituted-p-quinone derivatives for treatment of oxidative stress diseases” (Edison Pharmaceuticals, Inc., priority 2008, dated 2015)

Columns and labels:
Format in all cases: cell-based
[1] = test system: Human dermal fibroblasts from Friedreich's Ataxia patients; test: Rescue of BSO-stressed FRDA fibroblasts (Calcein AM viability); details: BSO-stressed FRDA fibroblasts (GM04078), less than about 150 nM, read-out: EC50, protection against FRDA
Description: An initial screen was performed to identify compounds effective for the amelioration of redox disorders. Test samples, 4 reference compounds (Idebenone, decylubiquinone, Trolox and α-tocopherol acetate), and solvent controls were tested for their ability to rescue FRDA fibroblasts stressed by addition of L-buthionine-(S,R)-sulfoximine (BSO), as described in Jauslin et al., Hum. Mol. Genet. 11(24):3055 (2002), Jauslin et al., FASEB J. 17:1972-4 (2003), and International Patent Application WO 2004/003565. […] This specific BSO-mediated cell death can be prevented by administration of antioxidants or molecules involved in the antioxidant pathway, such as α-tocopherol, selenium, or small molecule glutathione peroxidase mimetics. However, antioxidants differ in their potency, i.e. the concentration at which they are able to rescue BSO-stressed FRDA fibroblasts.
MEM (a medium enriched in amino acids and vitamins, catalog no. 1-31F24-I) and Medium 199 (M199, catalog no. 1-21F22-I) with Earle's Balanced Salts, without phenol red, were purchased from Bioconcept. Fetal Calf Serum was obtained from PAA Laboratories. Basic fibroblast growth factor and epidermal growth factor were purchased from PeproTech. Penicillin-streptomycin-glutamine mix, L-buthionine (S,R)-sulfoximine, (+)-α-tocopherol acetate, decylubiquinone, and insulin from bovine pancreas were purchased from Sigma. Trolox (6-hydroxy-2,5,7,8-tetramethylchromane-2-carboxylic acid) was obtained from Fluka. Idebenone was obtained from Chemo Iberica. Calcein AM was purchased from Molecular Probes. Cell culture medium was made by combining 125 ml M199 EBS, 50 ml Fetal Calf Serum, 100 U/ml penicillin, 100 μg/ml streptomycin, 2 mM glutamine, 10 μg/ml insulin, 10 ng/ml EGF, and 10 ng/ml bFGF; MEM EBS was added to make the volume up to 500 ml. A 10 mM BSO solution was prepared by dissolving 444 mg BSO in 200 ml of medium with subsequent filter-sterilization. During the course of the experiments, this solution was stored at +4° C. The cells were obtained from the Coriell Cell Repositories (Camden, N.J.; repository number GM04078) and grown in 10 cm tissue culture plates. Every third day, they were split at a 1:3 ratio.
The test samples were supplied in 1.5 ml glass vials. The compounds were diluted with DMSO, ethanol or PBS to result in a 5 mM stock solution. Once dissolved, they were stored at −20° C. Reference antioxidants (Idebenone, decylubiquinone, α-tocopherol acetate and trolox) were dissolved in DMSO.
Test samples were screened according to the following protocol:
(§1) A culture with FRDA fibroblasts was started from a 1 ml vial with approximately 500,000 cells stored in liquid nitrogen. Cells were propagated in 10 cm cell culture dishes by splitting every third day in a ratio of 1:3 until nine plates were available. Once confluent, fibroblasts were harvested. For 54 micro titer plates (96 well-MTP) a total of 14.3 million cells (passage eight) were re-suspended in 480 ml medium, corresponding to 100 μl medium with 3,000 cells/well. The remaining cells were distributed in 10 cm cell culture plates (500,000 cells/plate) for propagation. The plates were incubated overnight at 37° C. in an atmosphere with 95% humidity and 5% CO2 to allow attachment of the cells to the culture plate.
(§2) MTP medium (243 μl) was added to a well of the microtiter plate. The test compounds were unfrozen, and 7.5 μl of a 5 mM stock solution was dissolved in the well containing 243 μl medium, resulting in a 150 μM master solution. Serial dilutions from the master solution were made. The period between the single dilution steps was kept as short as possible (generally less than 1 second).
Plates were kept overnight in the cell culture incubator. The next day, 10 μl of a 10 mM BSO solution were added to the wells, resulting in a 1 mM final BSO concentration. Forty-eight hours later, three plates were examined under a phase-contrast microscope to verify that the cells in the 0% control (wells E1-H1) were clearly dead. […]

[2] = test system: human dermal fibroblasts from LHON patients; test: Rescue of BSO-stressed fibroblasts from LHON patients (screen as Example A); details: Fibroblast, BSO-stressed LHON fibroblasts (GM03858), less than about 150 nM, read-out: EC50, protection against LHON
Description: as §1, §2
(§3) Plates were kept overnight in the cell culture incubator. The next day, 10 μl of a 10 mM BSO solution were added to the wells, resulting in a 1 mM final BSO concentration. Forty-eight hours later, three plates were examined under a phase-contrast microscope to verify that the cells in the 0% control (wells E1-H1) were clearly dead. The medium from all plates was discarded, and the remaining liquid was removed by gently tapping the plate inversed onto a paper towel.
(§4) 100 μl of PBS containing 1.2 μM Calcein AM were then added to each well. The plates were incubated for 50-70 minutes at room temperature. After that time the PBS was discarded, the plate gently tapped on a paper towel and fluorescence (excitation/emission wavelengths of 485 nm and 525 nm, respectively) was read on a Gemini fluorescence reader. Data was imported into Microsoft Excel (EXCEL is a registered trademark of Microsoft Corporation for a spreadsheet program) and used to calculate the EC50 concentration for each compound.
(§5) Compounds of the invention were screened as described in Example A, but substituting FRDA cells with Leber's Hereditary Optic Neuropathy (LHON) cells obtained from the Coriell Cell Repositories (Camden, N.J.; repository number GM03858). The compounds were tested for their ability to rescue human dermal fibroblasts from LHON patients from oxidative stress.

[3] = test system: human dermal fibroblasts from Huntington's patients; test: Rescue of BSO-stressed fibroblasts from Huntington's patients (screen as Example A); details: Fibroblast, BSO-stressed Huntington's fibroblasts (GM 04281), less than about 150 nM, read-out: EC50, protection against Huntington's
Description: as §1, §2, §3, §4
as §5, with “tested using the screen” for “screened”, “Huntington's” for “Leber's Hereditary Optic Neuropathy (LHON)”, “GM 04281).” for “GM03858).”, “Huntington's” for “LHON”

Row | Structure (SMILES) | EC50 [1] [nM] | EC50 [2] [nM] | EC50 [3] [nM]
1 | CC1=C(C)C(=O)C(CCNC(=O)NCCN2CCOCC2)=C(C)C1=O [1-(2-morpholinoethyl)-3-(2-(2,4,5-trimethyl-3,6-dioxocyclohexa-1,4-dienyl)ethyl)urea] | < 150 | < 150 | < 150
2 | CCNC(=O)NCCC1=C(CCC(C)(C)O)C(=O)C(C)=C(C)C1=O [1-Ethyl-3-(2(2-(3-hydroxy-3-methylbutyl)-4,5-dimethyl-3,6-dioxocyclohexa-1,4-dienyl)ethyl)urea] | < 150 | < 150 | < 150
3 | CC1=C(C)C(=O)C(CCN(C)C(=O)Cc2ccc(Cl)cc2)=C(C)C1=O [2-(4-chlorophenyl)-N-methyl-N-(2-(2,4,5-trimethyl-3,6-dioxocyclohexa-1,4-dienyl)ethyl)acetamide] | < 150 | < 150 | < 150
4 | CC1=C(C)C(=O)C(CCC(C)C(=O)NCCc2ccccc2)=C(C)C1=O (centres unmarked) [2-methyl-N-phenethyl-4-(2,4,5-trimethyl-3,6-dioxocyclohexa-1,4-dienyl)butanamide] | < 150 | < 150 | < 150
5 | CC1=C(C)C(=O)C(CCN(C)C(=O)NCCN(C)C)=C(C)C1=O [3-(2-(dimethylamino)ethyl)-1-methyl-1-(2-(2,4,5-trimethyl-3,6-dioxocyclohexa-1,4-dienyl)ethyl)urea] | < 150 | < 150 | < 150
6 | CC(=O)c1ccc(C(=O)NCCC2=C(C)C(=O)C(C)=C(C)C2=O)cc1 [4-acetyl-N-(2-(2,4,5-trimethyl-3,6-dioxocyclohexa-1,4-dienyl)ethyl)benzamide] | < 150 | < 150 | < 150
7 | CC1=C(C)C(=O)C(CCNC(=O)c2ccc(C)cc2)=C(C)C1=O [4-methyl-N-(2-(2,4,5-trimethyl-3,6-dioxocyclohexa-1,4-dienyl)ethyl)benzamide] | < 150 | < 150 | < 150
8 | CC1=C(C)C(=O)C(CCNC(=O)N2CCN(C)CC2)=C(C)C1=O [4-methyl-N-(2-(2,4,5-trimethyl-3,6-dioxocyclohexa-1,4-dienyl)ethyl)piperazine-1-carboxamide] | < 150 | < 150 | < 150
9 | CC1=C(C)C(=O)C(CCC(C)(C)O)=C(CCNC(=O)CCCCC2CCSS2)C1=O (centres unmarked) [5-(1,2-Dithiolan-3-yl)-N-(2-(2-(3-hydroxy-3-methylbutyl)-4,5-dimethyl-3,6-dioxocyclohexa-1,4-dienyl)ethyl)pentanamide] | < 150 | < 150 | < 150
10 | CC1=C(C)C(=O)C(CCNC(=O)c2ccccc2)=C(C)C1=O [N-(2-(2,4,5-trimethyl-3,6-dioxocyclohexa-1,4-dienyl)ethyl)benzamide] | < 150 | < 150 | < 150
11 | CC1=C(C)C(=O)C(CCC(C)(C)O)=C(CCNS(=O)(=O)c2ccc(C)cc2)C1=O [N-(2-(2-(3-hydroxy-3-methylbutyl)-4,5-dimethyl-3,6-dioxocyclohexa-1,4-dienyl)ethyl)-4-methylbenzenesulfonamide] | < 150 | < 150 | < 150
12 | CC1=C(C)C(=O)C(CCC(C)(C)O)=C(CCNC(=O)c2ccccc2)C1=O [N-(2-(2-(3-hydroxy-3-methylbutyl)-4,5-dimethyl-3,6-dioxocyclohexa-1,4-dienyl)ethyl)-benzamide] | < 150 | < 150 | < 150
13 | CC1=C(C)C(=O)C(CCC(C)(C)O)=C(CCNS(C)(=O)=O)C1=O [N-(2-(2-(3-hydroxy-3-methylbutyl)-4,5-dimethyl-3,6-dioxocyclohexa-1,4-dienyl)ethyl)methanesulfonamide] | < 150 | < 150 | < 150
14 | CC1=C(C)C(=O)C(CCCC(=O)NCCc2ccccn2)=C(C)C1=O [N-(2-(pyridin-2-yl)ethyl)-4-(2,4,5-trimethyl-3,6-dioxocyclohexa-1,4-dienyl)butanamide] |  | < 150 | < 150
15 | CC1=C(C)C(=O)C(CCCC(=O)NCCc2ccncc2)=C(C)C1=O [N-(2-(pyridin-4-yl)ethyl)-4-(2,4,5-trimethyl-3,6-dioxocyclohexa-1,4-dienyl)butanamide] | < 150 | < 150 | < 150
16 | CC1=C(C)C(=O)C(CCCC(=O)Nc2ccccc2N)=C(C)C1=O [N-(2-aminophenyl)-4-(2,4,5-trimethyl-3,6-dioxocyclohexa-1,4-dienyl)butanamide] | < 150 | < 150 | < 150
17 | CC1=C(C)C(=O)C(CCCC(=O)Nc2ccccc2C#N)=C(C)C1=O [N-(2-cyanophenyl)-4-(2,4,5-trimethyl-3,6-dioxocyclohexa-1,4-dienyl)butanamide] | < 150 | < 150 | < 150
18 | CC1=C(C)C(=O)C(CCC(C)C(=O)NCCO)=C(C)C1=O (centres unmarked) [N-(2-hydroxyethyl)-2-methyl-4-(2,4,5-trimethyl-3,6-dioxocyclohexa-1,4-dienyl)butanamide] | < 150 | < 150 | < 150
19 | CC1=C(C)C(=O)C(CCCC(=O)NCCO)=C(C)C1=O [N-(2-hydroxyethyl)-4-(2,4,5-trimethyl-3,6-dioxocyclohexa-1,4-dienyl)butanamide] | < 150 | < 150 | < 150
20 | CC1=C(C)C(=O)C(CCCC(=O)Nc2cc(Cl)cc(Cl)c2)=C(C)C1=O [N-(3,5-dichlorophenyl)-4-(2,4,5-trimethyl-3,6-dioxocyclohexa-1,4-dienyl)butanamide] | < 150 | < 150 | < 150
21 | CC1=C(C)C(=O)C(CCC(C)C(=O)Nc2ccc(F)cc2)=C(C)C1=O (centres unmarked) [N-(4-fluorophenyl)-2-methyl-4-(2,4,5-trimethyl-3,6-dioxocyclohexa-1,4-dienyl)butanamide] | < 150 | < 150 | < 150
22 | CC1=C(C)C(=O)C(CCCC(=O)Nc2cccnc2)=C(C)C1=O [N-(pyridin-3-yl)-4-(2,4,5-trimethyl-3,6-dioxocyclohexa-1,4-dienyl)butanamide] | < 150 | < 150 | < 150
